Molecules are shown by their SMILES. Active and inactive are the calls of the source. The rule behind the calls is not given here.

The test system of experiment [1] is Jurkat. The experiment is described as follows: Induction of HIV-LTR transactivation assessed by GFP expression in Jurkat cells at 25 uM after 36 hrs by flow cytometry. The following applies: Human immunodeficiency virus. The class given is cell-based. On the technique in general: A flow cytometer gives signals particle by particle.
Experiment [2] has as its system Jurkat. The experiment is described as follows: Cell cycle arrest in human Jurkat cells assessed as accumulation at sub-G0 phase at 10 uM after 36 hrs by flow cytometry. In kind it is functional.
The test system of experiment [3] is Jurkat. The experiment is described as follows: Cell cycle arrest in human Jurkat cells assessed as accumulation at sub-G0 phase at 50 uM after 36 hrs by flow cytometry. In kind it is functional.
The test system of experiment [4] is Jurkat. The experiment is described as follows: Cell cycle arrest in human Jurkat cells assessed as accumulation at G0/G1 phase at 10 uM after 36 hrs by flow cytometry. In kind it is functional.
Experiment [5] relates to Jurkat. As to the kind of experiment: Cell cycle arrest in human Jurkat cells assessed as accumulation at G0/G1 phase at 50 uM after 36 hrs by flow cytometry. The class given is functional.
For experiment [6], the system named is Jurkat. As to the kind of experiment: Cell cycle arrest in human Jurkat cells assessed as accumulation at S phase at 10 uM after 36 hrs by flow cytometry. The class given is functional.
For experiment [7], the system named is Jurkat. The experiment is described as follows: Cell cycle arrest in human Jurkat cells assessed as accumulation at S phase at 50 uM after 36 hrs by flow cytometry. In kind it is functional.
For experiment [8], the system named is Jurkat. The experiment is described as follows: Cell cycle arrest in human Jurkat cells assessed as accumulation at G2/M phase at 10 uM after 36 hrs by flow cytometry. In kind it is functional.
The test system of experiment [9] is Jurkat. The experiment is described as follows: Cell cycle arrest in human Jurkat cells assessed as accumulation at G2/M phase at 50 uM after 36 hrs by flow cytometry. The class given is functional.
Experiment [10] concerns Jurkat. As to the kind of experiment: Induction of HIV-LTR transactivation assessed by GFP expression in Jurkat cells at 10 uM after 36 hrs by flow cytometry. In kind it is cell-based. The settings on record: Human immunodeficiency virus.
Experiment [11] deals with Jurkat. The experiment is described as follows: Induction of HIV-LTR transactivation assessed by GFP expression in Jurkat cells at 50 uM after 36 hrs by flow cytometry. In kind it is cell-based. The following applies: Human immunodeficiency virus.
The subject of experiment [12] is Jurkat. As to the kind of experiment: Induction of HIV-LTR transactivation assessed by GFP expression in Jurkat cells at 10 ng/ml after 36 hrs by flow cytometry. The settings on record: Human immunodeficiency virus. The class given is cell-based.

Take `COc1ccc(CC(=O)O[C@H]2[C@@H](C)C[C@@]34O[C@@]23/C=C(\C)C(OC(C)=O)[C@H](OC(C)=O)[C@H]2[C@@H]([C@@H](OC(C)=O)[C@@H](C)C4=O)C2(C)C)cc1` (some centres undefined): the result in the experiment with Jurkat [1], in the experiment with Jurkat [10] and in the experiment on Jurkat [11] was inactive. The Activity with Jurkat [2] is 1.59%; in the experiment on Jurkat [3] it was 1.95%; in the experiment on Jurkat [4], 60.9%; in the experiment with Jurkat [5] it was 61.5%; in the experiment with Jurkat [6], 21%; in the experiment with Jurkat [7] it was 21.7%. Further, the Activity stood at 16.4% in the experiment on Jurkat [8] and 14.7% in the experiment with Jurkat [9].
Regarding `CCCCCCCCCCCCCC(=O)O[C@@H]1[C@@H](C)[C@@]2(O)[C@@H](C=C(CO)C[C@]3(O)C(=O)C(C)=C[C@@H]23)[C@@H]2C(C)(C)[C@]12OC(C)=O`, the Activity in the experiment with Jurkat [12] is 97.3%.
For `CO[C@H]1C(OC(C)=O)/C(C)=C/[C@@]23O[C@@]2(C[C@H](C)[C@@H]3OC(=O)Cc2ccccc2)C(=O)[C@H](C)[C@H](OC(C)=O)[C@@H]2[C@H]1C2(C)C` (some centres undefined), the Activity stood at 66% in the experiment with Jurkat [1]; 2.34% in the experiment on Jurkat [2]; 3.97% with Jurkat [3]; 77.8% in the experiment on Jurkat [4]; 81.4% in the experiment with Jurkat [5]; 9.01% in the experiment with Jurkat [6]. Also, the Activity in the experiment with Jurkat [7] turned out to be 5.31%; in the experiment with Jurkat [8] it was 10.8%; in the experiment on Jurkat [9] it was 9.22%; with Jurkat [10], 25.5%; in the experiment with Jurkat [11], 83.5%.
Take `CC(=O)OC1/C(C)=C/[C@@]23O[C@@]2(C[C@H](C)[C@@H]3OC(=O)Cc2ccccc2)C(=O)[C@H](C)[C@H](OC(C)=O)[C@@H]2[C@H]([C@H]1OC(C)=O)C2(C)C` (some centres undefined): the outcome in the experiment on Jurkat [1], with Jurkat [10] and with Jurkat [11] was inactive. Moreover, the Activity in the experiment with Jurkat [2] is reported as 1.52%; in the experiment with Jurkat [3], 1.38%; in the experiment on Jurkat [4], 61.5%; in the experiment with Jurkat [5], 66.2%; in the experiment on Jurkat [6], 20.9%; in the experiment with Jurkat [7], 18.7%. Also, the Activity was 15.9% in the experiment with Jurkat [8] and 13.4% in the experiment on Jurkat [9].
